Patent US10301260B2, “Pyrrolidine GPR40 modulators” (BRISTOL-MYERS SQUIBB COMPANY, priority 2014, dated 2019)
Structures can show the parent of a compound that is named as a salt.

molecular target: T1, hGPR40 (Homo sapiens, UniProt O14842); assay: FDSS-based intracellular calcium assay (Human GRP40 In Vitro assay); assay type: cell-based; settings: cells expressing GPR40, intracellular Ca2+ response
T1 construct: 3xFLAG; expressed in transfected cells
Procedure: FDSS-Based Intracellular Calcium Assay
Cell lines expressing GPR40 are generated using the pDEST-3xFLAG gene expression system and are cultured in culture medium comprising the following components: F12 (Gibco #11765), 10% lipid deprived fetal bovine serum, 250 μg/ml zeocin and 500 μg/ml G418. To conduct the fluorescent imaging plate reader (FLIPR)-based calcium flux assay to measure intracellular Ca^2+ response, cells expressing GPR40 are plated on 384 well plates (BD Biocoat #356697) at a density of 20,000 cells/20 μL medium per well in phenol red and serum-free DMEM (Gibco #21063-029) and incubated overnight. Using BD kit #s 80500-310 or -301, the cells are incubated with 20 μL per well of Hank's buffered salt solution with 1.7 mM probenecid and Fluo-3 at 37° C. for 30 min. Compounds are dissolved in DMSO and diluted to desired concentrations with assay buffer and added to the cells as 3× solution (20 μL per well). Run fluorescence/luminescence reader FDSS (Hamamatsu) to read intracellular Ca^2+ response.
The exemplified Examples disclosed below were tested in the Human GRP40 In Vitro assay described above and found having hGRP40 modulating activity.

T1 sequence (O14842 whole entry): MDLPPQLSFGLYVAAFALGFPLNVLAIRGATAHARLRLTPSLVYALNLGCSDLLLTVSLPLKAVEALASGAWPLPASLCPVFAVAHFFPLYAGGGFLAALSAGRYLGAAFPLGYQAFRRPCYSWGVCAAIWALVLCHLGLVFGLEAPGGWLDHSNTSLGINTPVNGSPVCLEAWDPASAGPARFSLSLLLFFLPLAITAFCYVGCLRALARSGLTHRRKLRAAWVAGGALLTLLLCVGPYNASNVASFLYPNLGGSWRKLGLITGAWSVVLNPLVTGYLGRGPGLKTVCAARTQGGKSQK

Row | SMILES | EC50
1 | COc1ccc(F)c(-c2ccc(Cc3ccc(N4CC(c5cc(C)no5)CC4CC(=O)O)cc3)c(C)c2)c1 (single isomer, unassigned) [Example 9, Isomer 1, 2-(1-(4-((2′-Fluoro-5′-methoxy-3-methyl-[1,1′-biphenyl]-4-yl)methyl)phenyl)-4-(3-methylisoxazol-5-yl)pyrrolidin-2-yl)acetic Acid, HCl] | 150 nM
2 | COc1ccc(F)c(-c2ccc(Cc3ccc(N4CC(c5cc(C)no5)CC4CC(=O)O)cc3)c(C)c2)c1 (single isomer, unassigned) [Example 9, Isomer 2, 2-(1-(4-((2′-Fluoro-5′-methoxy-3-methyl-[1,1′-biphenyl]-4-yl)methyl)phenyl)-4-(3-methylisoxazol-5-yl)pyrrolidin-2-yl)acetic Acid, HCl] | 2200 nM
3 | COc1ccc(F)c(-c2ccc(Cc3ccc(N4CC(c5cc(C)no5)CC4CC(=O)O)cc3)c(C)c2)c1 (single isomer, unassigned) [Example 9, Isomer 3, 2-(1-(4-((2′-Fluoro-5′-methoxy-3-methyl-[1,1′-biphenyl]-4-yl)methyl)phenyl)-4-(3-methylisoxazol-5-yl)pyrrolidin-2-yl)acetic Acid, HCl] | 1400 nM
4 | COc1ccc(F)c(-c2ccc(Cc3ccc(N4CC(c5cc(C)no5)CC4CC(=O)O)cc3)c(C)c2)c1 (single isomer, unassigned) [Example 9, Isomer 4, 2-(1-(4-((2′-Fluoro-5′-methoxy-3-methyl-[1,1′-biphenyl]-4-yl)methyl)phenyl)-4-(3-methylisoxazol-5-yl)pyrrolidin-2-yl)acetic Acid, HCl] | 3500 nM
5 | COc1ccc(F)c(-c2ccc(Cc3ccc(N4CC(c5ccon5)CC4CC(=O)O)cc3)c(C)c2)c1 (single isomer, unassigned) [Example 11, Isomer 1, 2-(1-(4-((2′-Fluoro-5′-methoxy-3-methyl-[1,1′-biphenyl]-4-yl)methyl)phenyl)-4-(isoxazol-3-yl)pyrrolidin-2-yl)acetic Acid, HCl] | 8100 nM
6 | COc1ccc(F)c(-c2ccc(Cc3ccc(N4CC(c5ccon5)CC4CC(=O)O)cc3)c(C)c2)c1 (single isomer, unassigned) [Example 11, Isomer 2, 2-(1-(4-((2′-Fluoro-5′-methoxy-3-methyl-[1,1′-biphenyl]-4-yl)methyl)phenyl)-4-(isoxazol-3-yl)pyrrolidin-2-yl)acetic Acid, HCl] | 550 nM
7 | COc1ccc(F)c(-c2ccc(Cc3ccc(N4CC(c5cccc(Cl)c5)C[C@@H]4CC(=O)O)cc3)c(C)c2)c1 (single isomer, unassigned) [Example 12, Isomer 1, HCl] | 160 nM
8 | COc1ccc(F)c(-c2ccc(Cc3ccc(N4CC(c5cccc(Cl)c5)C[C@@H]4CC(=O)O)cc3)c(C)c2)c1 (single isomer, unassigned) [Example 12, Isomer 2, HCl] | 10 nM
9 | COc1ccc(F)c(-c2ccc(Cc3ccc(N4C[C@@H](N5CCCCC5)C[C@@H]4CC(=O)O)cc3)c(C)c2)c1 (single isomer, unassigned) [Example 13, Isomer 1] | 6700 nM
10 | COc1ccc(F)c(-c2ccc(Cc3ccc(N4C[C@H](N5CCCCC5)C[C@@H]4CC(=O)O)cc3)c(C)c2)c1 (single isomer, unassigned) [Example 13, Isomer 2] | 2800 nM
11 | COc1ccc(F)c(-c2ccc(Cc3ccc(N4C[C@H](c5ccccc5OC)C[C@@H]4CC(=O)O)cc3)c(C)c2)c1 (single isomer, unassigned) [Example 15, Isomer 1, HCl] | 39 nM
12 | COc1ccc(F)c(-c2ccc(Cc3ccc(N4C[C@@H](c5ccccc5OC)C[C@@H]4CC(=O)O)cc3)c(C)c2)c1 (single isomer, unassigned) [Example 15, Isomer 2, HCl] | 61 nM
13 | COc1ccc(F)c(-c2ccc(Cc3ccc(N4C[C@H](c5ccccc5)C[C@@H]4CC(=O)O)cc3)c(C)c2)c1 [Example 1, 2-((2R,4S)-1-(4-((2′-Fluoro-5′-methoxy-3-methylbiphenyl-4-yl)methyl)phenyl)-4-phenylpyrrolidin-2-yl)acetic Acid, HCl] | 15 nM
14 | COc1ccc(F)c(-c2ccc(Cc3ccc(N4CC(C#N)CC4CC(=O)O)cc3)c(C)c2)c1 (centres unmarked) [Example 2, 2-(4-Cyano-1-(4-((2′-fluoro-5′-methoxy-3-methylbiphenyl-4-yl)methyl)phenyl)pyrrolidin-2-yl)acetic Acid, TFA] | 270 nM
15 | COc1ccc(F)c(-c2ccc(Cc3ccc(N4C[C@H](C5CCCCC5)C[C@@H]4CC(=O)O)cc3)c(C)c2)c1 [Example 3, 2-((2R,4S)-4-Cyclohexyl-1-(4-((2′-fluoro-5′-methoxy-3-methyl-[1,1′-biphenyl]-4-yl)methyl)phenyl)pyrrolidin-2-yl)acetic Acid, HCl] | 13 nM
16 | COc1ccc(F)c(-c2ccc(Cc3ccc(N4C[C@H](c5ccc(-c6ccccc6)cc5)C[C@@H]4CC(=O)O)cc3)c(C)c2)c1 [Example 4, 2-((2R,4S)-4-([1,1′-Biphenyl]-4-yl)-1-(4-((2′-fluoro-5′-methoxy-3-methyl-[1,1′-biphenyl]-4-yl)methyl)phenyl)pyrrolidin-2-yl)acetic Acid, HCl] | 210 nM
17 | COc1ccc(F)c(-c2ccc(Cc3ccc(N4C[C@@H](c5ccccc5)C[C@@H]4CC(=O)O)cc3)c(C)c2)c1 [Example 5, 2-((2R,4R)-1-(4-((2′-Fluoro-5′-methoxy-3-methyl-[1,1′-biphenyl]-4-yl)methyl)phenyl)-4-phenylpyrrolidin-2-yl)acetic Acid] | 130 nM
18 | COc1ccc(F)c(-c2ccc(Cc3ccc(N4C[C@](OC)(c5ccc(-c6ccccc6)cc5)C[C@@H]4CC(=O)O)cc3)c(C)c2)c1 [Example 6, 2-((2R,4R)-4-([1,1′-Biphenyl]-4-yl)-1-(4-((2′-fluoro-5′-methoxy-3-methyl-[1,1′-biphenyl]-4-yl)methyl)phenyl)-4-methoxypyrrolidin-2-yl)acetic Acid, HCl] | 77 nM
19 | COCCO[C@@H]1C[C@H](CC(=O)O)N(c2ccc(Cc3ccc(-c4cc(OC)ccc4F)cc3C)cc2)C1 [Example 7, 2-((2R,4R)-1-(4-((2′-Fluoro-5′-methoxy-3-methyl-[1,1′-biphenyl]-4-yl)methyl)phenyl)-4-(2-methoxyethoxy)pyrrolidin-2-yl)acetic Acid, HCl] | 240 nM
20 | COc1ccc(F)c(-c2ccc(Cc3ccc(N4C[C@H](c5cccnc5)C[C@@H]4CC(=O)O)cc3)c(C)c2)c1 [Example 8, 2-((2R,4S)-1-(4-((2′-Fluoro-5′-methoxy-3-methyl-[1,1′-biphenyl]-4-yl)methyl)phenyl)-4-(pyridin-3-yl)pyrrolidin-2-yl)acetic Acid, HCl] | 94 nM
21 | COc1ccc(F)c(-c2ccc(Cc3ccc(N4C[C@@H](c5ccccn5)C[C@@H]4CC(=O)O)cc3)c(C)c2)c1 [Example 10, 2-((2R,4S)-1-(4-((2′-Fluoro-5′-methoxy-3-methyl-[1,1′-biphenyl]-4-yl)methyl)phenyl)-4-(pyridin-2-yl)pyrrolidin-2-yl)acetic Acid, HCl] | 1400 nM
22 | COc1ccc(F)c(-c2ccc(COc3ccc(N4C[C@H](c5ccccc5)C[C@@H]4CC(=O)O)cc3)c(C)c2)c1 [Example 16, 2-((2R,4S)-1-(4-((2′-Fluoro-5′-methoxy-3-methyl-[1,1′-biphenyl]-4-yl)methoxy)phenyl)-4-phenylpyrrolidin-2-yl)acetic Acid, HCl] | 1000 nM
23 | COCCCO[C@H]1CN(c2ccc(Cc3ccc(-c4cc(OC)ccc4F)cc3C)cc2)[C@@H](CC(=O)O)[C@@H]1C [Example 17, 2-((2S,3S,4R)-1-(4-((2′-Fluoro-5′-methoxy-3-methyl-[1,1′-biphenyl]-4-yl)methyl)phenyl)-4-(3-methoxypropoxy)-3-methylpyrrolidin-2-yl)acetic Acid, HCl] | 39 nM
